# In paper PMC9304322, “Targeting retinoic acid receptor alpha-corepressor interaction activates chaperone-mediated autophagy and protects against retinal degeneration” (Nature Communications, 2022):
# Values joined by “and” are separate entries in the source; they are usually repeats but may differ in a detail not shown here. Equal entries are not always repeated. Where two headings read alike, the source gives them in different places.
# Assays:
# [1] = In vitro solubility by nephelometry; assay type: physicochemical; conditions: in words
# Description: In vitro solubility in the following conditions A) HBSS/HEPES 10 mM/BSA 0.1% pH 6 B) HBSS/HEPES 10 mM/BSA 0.1% pH 7.4 C) TRIS/BSA 0.1% PBS (pH 7.4 and at indicated doses were measured by Nephelometry using the NEPHELOstar Galaxy apparatus (BMG Lab Technologies). In vitro stability in human, mouse and rat liver microsomes and permeability using a bidirectional permeability assay with CaCo-2 cells (pH 6.5/7.4) assays were performed with standard methodology and analyzed by LC-MS/MS. at SIMM-SERVIER joint Biopharmacy Laboratory. ADME properties for CA39 and CA77 were predicted by QikProp (Schrödinger, LLC, Releases 2016-2020) software.
# [2] = Pharmacokinetic analysis, plasma and brain;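 as to Fig. 3a level, MEAN: plasma concentration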;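 as to Fig. 3a level, single animals 1-3: plasma concentration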;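 as to Fig. 3b level, MEAN: brain concentration in ng/g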;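 as to Fig. 3b level, single animals 1-3: brain concentration in ng/g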; assay type: in vivo, ICR (CD-1) male mice; set-up: Fig. 3a level, single animals 1-3 / Fig. 3a level, MEAN / Fig. 3b level, single animals 1-3 / Fig. 3b level, MEAN: unit not given here; conditions: for Kp at 0.083 h / Kp at 0.25 h / Kp at 0.5 h / Kp at 1 h / Kp at 2 h / Kp at 4 h / Kp at 8 h / half-life: male, ICR (CD-1), mouse; for half-life: mice
# Description: ICR (CD-1) male mice were fasted at least three hours and water was available ad libitum before the study. Animals were housed in a controlled environment, target conditions: temperature 18 to 29 °C, relative humidity 30 to 70%. Temperature and relative humidity was monitored daily. An electronic time-controlled lighting system was used to provide a 12 h light/12 h dark cycle. 3 mice for each indicated time point were administered 30 mg/Kg CA39 or CA77 by oral gavage or 1 mg/Kg CA39 or CA77 by intravenous injection using 30% PEG-400, 65% D5W (5% dextrose in water), 5% Tween-80 vehicle. Mice were sacrificed, and brain samples were harvested at […], 0.25 h, 0.5 h, 1 h, 2 h, 4 h, 8 h, 24 h, and analyzed for CA39 or CA77 levels using LC-MS/MS. Pharmacokinetics parameters were calculated using Phoenix WinNonlin 6.3. Experiments performed at SIMM-SERVIER joint Biopharmacy Laboratory.
structure (smiles),measurement,setting,value
CC(=O)Nc1ccc(C2=Nc3ccc(Cl)cc3OC2)cc1 [CA77],solubility,[1],reasonable
same,"Fig. 3a level, MEAN","[2]; IV, Time 0.25 h",30.2
same,"Fig. 3a level, single animals 1-3","[2]; IV, Time 0.25 h",27.2 and 43.9 and 19.5
same,"Fig. 3b level, MEAN","[2]; IV, Time 0.25 h",3653.67
same,"Fig. 3b level, single animals 1-3","[2]; IV, Time 0.25 h",3391 and 5173 and 2397
same,"Fig. 3a level, MEAN","[2]; IV, Time 0.5 h",17.9
same,"Fig. 3a level, single animals 1-3","[2]; IV, Time 0.5 h",17.2 and 14.6 and 21.9
same,"Fig. 3b level, MEAN","[2]; IV, Time 0.5 h",2647.67
same,"Fig. 3b level, single animals 1-3","[2]; IV, Time 0.5 h",2198 and 2795 and 2950
same,"Fig. 3a level, MEAN","[2]; IV, Time 1 h",17.4333
same,"Fig. 3a level, single animals 1-3","[2]; IV, Time 1 h",15.5 and 21.5 and 15.3
same,"Fig. 3b level, MEAN","[2]; IV, Time 1 h",2521.11
same,"Fig. 3b level, single animals 1-3","[2]; IV, Time 1 h",2758.39 and 2650.88 and 2154.07
same,"Fig. 3a level, MEAN","[2]; IV, Time 2 h",4.363
same,"Fig. 3a level, single animals 1-3","[2]; IV, Time 2 h",7.54 and 1.71 and 3.84
same,"Fig. 3b level, MEAN","[2]; IV, Time 2 h",658.667
same,"Fig. 3b level, single animals 1-3","[2]; IV, Time 2 h",773 and 411 and 792
same,"Fig. 3a level, MEAN","[2]; IV, Time 4 h",0.3767
same,"Fig. 3a level, single animals 1-3","[2]; IV, Time 4 h",BLQ and 0.597 and 0.533
same,"Fig. 3b level, MEAN","[2]; IV, Time 4 h",104
same,"Fig. 3b level, single animals 1-3","[2]; IV, Time 4 h",76 and 112 and 124
same,"Fig. 3a level, MEAN","[2]; IV, Time 8 h",0
same,"Fig. 3a level, single animals 1-3","[2]; IV, Time 8 h",BLQ
same,"Fig. 3b level, MEAN","[2]; IV, Time 8 h",25.5467
same,"Fig. 3b level, single animals 1-3","[2]; IV, Time 8 h",7.74 and 27.5 and 41.4
same,"Fig. 3a level, MEAN","[2]; IV, Time 24 h",0
same,"Fig. 3a level, single animals 1-3","[2]; IV, Time 24 h",BLQ
same,"Fig. 3b level, MEAN","[2]; IV, Time 24 h",3
same,"Fig. 3b level, single animals 1-3","[2]; IV, Time 24 h",2.68 and 4.25 and 2.07
same,"B/P, Brian/Plasma","[2]; P.O., Time 0.25 h, individual animals",60.8033 and 75.265
same,"B/P, Brian/Plasma","[2]; P.O., Time 0.5 h, individual animals",154.065 and 93.9339
same,"B/P, Brian/Plasma","[2]; P.O., Time 1 h, individual animals",105.807 and 124.313
same,"B/P, Brian/Plasma","[2]; P.O., Time 2 h, individual animals",113.451 and 103.8
same,"B/P, Brian/Plasma","[2]; P.O., Time 4 h, individual animals",108.623 and 135.516
same,"B/P, Brian/Plasma","[2]; P.O., Time 8 h, individual animals",133.365 and 145.604
same,"Fig. 3b level, MEAN","[2]; PO, Time 0.25 h",9743
same,"Fig. 3b level, single animals 1-3","[2]; PO, Time 0.25 h",7893 and 7279 and 14057
same,"Fig. 3b level, MEAN","[2]; PO, Time 0.5 h",16210.7
same,"Fig. 3b level, single animals 1-3","[2]; PO, Time 0.5 h",13095 and 20145 and 15392
same,"Fig. 3b level, MEAN","[2]; PO, Time 1 h",30964
same,"Fig. 3b level, single animals 1-3","[2]; PO, Time 1 h",31243 and 27952 and 33697
same,"Fig. 3a level, MEAN","[2]; PO, Time 2 h",278
same,"Fig. 3a level, single animals 1-3","[2]; PO, Time 2 h",318 and 259 and 257
same,"Fig. 3b level, MEAN","[2]; PO, Time 2 h",29203.3
same,"Fig. 3b level, single animals 1-3","[2]; PO, Time 2 h",31592 and 29359 and 26659
same,"Fig. 3a level, MEAN","[2]; PO, Time 4 h",203.667
same,"Fig. 3a level, single animals 1-3","[2]; PO, Time 4 h",163 and 258 and 190
same,"Fig. 3b level, MEAN","[2]; PO, Time 4 h",24280.3
same,"Fig. 3b level, single animals 1-3","[2]; PO, Time 4 h",19042 and 28003 and 25796
same,"Fig. 3a level, MEAN","[2]; PO, Time 8 h",44.4333
same,"Fig. 3a level, single animals 1-3","[2]; PO, Time 8 h",55.2 and 45.3 and 32.8
same,"Fig. 3b level, MEAN","[2]; PO, Time 8 h",5756
same,"Fig. 3b level, single animals 1-3","[2]; PO, Time 8 h",6451 and 6039 and 4778
same,"Fig. 3a level, MEAN","[2]; PO, Time 24 h",0
same,"Fig. 3a level, single animals 1-3","[2]; PO, Time 24 h",0
same,"Fig. 3b level, MEAN","[2]; PO, Time 24 h",10.0733
same,"Fig. 3b level, single animals 1-3","[2]; PO, Time 24 h",18.9 and 6.07 and 5.25
same,"B/P, Brian/Plasma","[2]; i.v., Time 0.083 h, individual animals",71.1336 and 48.9012
same,"B/P, Brian/Plasma","[2]; i.v., Time 0.25 h, individual animals",117.877 and 123.138
same,"B/P, Brian/Plasma","[2]; i.v., Time 0.5 h, individual animals",191.891 and 134.551
same,"B/P, Brian/Plasma","[2]; i.v., Time 1 h, individual animals",123.104 and 140.908
same,"B/P, Brian/Plasma","[2]; i.v., Time 2 h, individual animals",102.433 and 239.982 and 206.167
same,"B/P, Brian/Plasma","[2]; i.v., Time 4 h, individual animals",232.498
same,Kp at 0.083 h,"[2]; brain, iv, 1 mg/Kg, i.v., Time 0.083 h, individual animals, read-out: B/P, Brian/Plasma",71.3
same,Kp at 0.083 h,"[2]; brain, iv, 1 mg/Kg, i.v., Time 0.083 h, mean, read-out: B/P, Brian/Plasma, Mean",71.2
same,Kp at 0.25 h,"[2]; brain, iv, 1 mg/Kg, i.v., Time 0.25 h, individual animals, read-out: B/P, Brian/Plasma",125
same,Kp at 0.25 h,"[2]; brain, iv, 1 mg/Kg, i.v., Time 0.25 h, mean, read-out: B/P, Brian/Plasma, Mean",122
same,Kp at 0.5 h,"[2]; brain, iv, 1 mg/Kg, i.v., Time 0.5 h, individual animals, read-out: B/P, Brian/Plasma",128
same,Kp at 0.5 h,"[2]; brain, iv, 1 mg/Kg, i.v., Time 0.5 h, mean, read-out: B/P, Brian/Plasma, Mean",151
same,Kp at 1 h,"[2]; brain, iv, 1 mg/Kg, i.v., Time 1 h, individual animals, read-out: B/P, Brian/Plasma",178
same,Kp at 1 h,"[2]; brain, iv, 1 mg/Kg, i.v., Time 1 h, mean, read-out: B/P, Brian/Plasma, Mean",159
same,Kp at 2 h,"[2]; brain, iv, 1 mg/Kg, i.v., Time 2 h, mean, read-out: B/P, Brian/Plasma, Mean",183
same,Kp at 4 h,"[2]; brain, iv, 1 mg/Kg, i.v., Time 4 h, individual animals, read-out: B/P, Brian/Plasma",188
same,Kp at 4 h,"[2]; brain, iv, 1 mg/Kg, i.v., Time 4 h, mean, read-out: B/P, Brian/Plasma, Mean",210
same,Kp at 0.25 h,"[2]; brain, po, 30 mg/Kg, P.O., Time 0.25 h, individual animals, read-out: B/P, Brian/Plasma",64.5
same,Kp at 0.25 h,"[2]; brain, po, 30 mg/Kg, P.O., Time 0.25 h, mean, read-out: B/P, Brian/Plasma, Mean",66.9
same,Kp at 0.5 h,"[2]; brain, po, 30 mg/Kg, P.O., Time 0.5 h, individual animals, read-out: B/P, Brian/Plasma",122
same,Kp at 0.5 h,"[2]; brain, po, 30 mg/Kg, P.O., Time 0.5 h, mean, read-out: B/P, Brian/Plasma, Mean",123
same,Kp at 1 h,"[2]; brain, po, 30 mg/Kg, P.O., Time 1 h, individual animals, read-out: B/P, Brian/Plasma",125
same,Kp at 1 h,"[2]; brain, po, 30 mg/Kg, P.O., Time 1 h, mean, read-out: B/P, Brian/Plasma, Mean",118
same,Kp at 2 h,"[2]; brain, po, 30 mg/Kg, P.O., Time 2 h, individual animals, read-out: B/P, Brian/Plasma",99.4
same,Kp at 2 h,"[2]; brain, po, 30 mg/Kg, P.O., Time 2 h, mean, read-out: B/P, Brian/Plasma, Mean",106
same,Kp at 4 h,"[2]; brain, po, 30 mg/Kg, P.O., Time 4 h, individual animals, read-out: B/P, Brian/Plasma",117
same,Kp at 4 h,"[2]; brain, po, 30 mg/Kg, P.O., Time 4 h, mean, read-out: B/P, Brian/Plasma, Mean",120
same,Kp at 8 h,"[2]; brain, po, 30 mg/Kg, P.O., Time 8 h, individual animals, read-out: B/P, Brian/Plasma",117
same,Kp at 8 h,"[2]; brain, po, 30 mg/Kg, P.O., Time 8 h, mean, read-out: B/P, Brian/Plasma, Mean",132
same,half-life,"[2]; brain, IV 1 mg/kg, read-out: Half-life in brain (converted)",1.8 h
same,half-life,"[2]; brain, PO 30 mg/kg, read-out: Half-life in brain (converted)",4.2 h
same,half-life,"[2]; plasma, IV 1 mg/kg, read-out: Half-life in plasma (converted)",0.6 h
same,half-life,"[2]; plasma, PO 30 mg/kg, read-out: Half-life in plasma (converted)",2.2 h
